{"source": "patent US9051317B2", "about": "“Azaindoles as respiratory syncytial virus antiviral agents” (JANSSEN SCIENCES IRELAND UC, priority 2010, dated 2015)", "key": {"[1]": {"test": "Cytotoxicity in HeLa cells, ATP content (ATPlite kit)", "format": "cell-based", "settings": "human, Table 1, three days incubation, read-out: Toxicity CC50", "experimental": "(§1) Black 96-well clear-bottom microtiter plates (Corning, Amsterdam, The Netherlands) were filled in duplicate using a customized robot system with serial 4-fold dilutions of compound in a final volume of 50 μl culture medium [RPMI medium without phenol red, 10% FBS, 0.04% gentamycin (50 mg/mL) and 0.5% DMSO]. Then, 100 μl of a HeLa cell suspension (5×10^4 cells/mL) in culture medium was added to each well followed by the addition of 50 μl rgRSV224 (MOI=0.02) virus in culture medium using a multidrop dispenser (Thermo Scientific, Erembodegem, Belgium). rgRSV224 virus is an engineered virus that includes an additional GFP gene (Hallak et al, 2000) and was in-licensed from the NIH (Bethesda, Md., USA). Medium, virus- and mock-infected controls were included in each test. Cells were incubated at 37° C. in a 5% CO2 atmosphere. Three days post-virus exposure, viral replication was quantified by measuring GFP expression in the cells by a MSM laser microscope (Tibotec, Beerse, Belgium). The EC50 was defined as the 50% inhibitory concentration for GFP expression. In parallel, compounds were incubated for three days in a set of white 96-well microtitier plates (Corning) and the cytotoxicity of compounds in HeLa cells was determined by measuring the ATP content of the cells using the ATPlite kit (PerkinElmer, Zaventem, Belgium) according to the manufacturer's instructions. The CC50 was defined as the 50% concentration for cytotoxicity."}, "rgRSV224 virus": {"test_system": "rgRSV224 virus", "test": "microbe, parasite or virus in culture", "format": "cell-based, respiratory syncytial virus (RSV)", "settings": "human respiratory syncytial virus, HeLa, 72 h, read-out: WT activity EC50", "experimental": "as §1"}}}
{"molecule": "CC(C)CCn1c(Cn2c(=O)n(C3CC3)c3ccncc32)cc2cccnc21", "note": "[Compound P10, 1-Cyclopropyl-3-{[1-(3-methylbutyl)-1H-pyrrolo[2,3-b]pyridin-2-yl]methyl}-1,3-dihydro-2H-imidazo[4,5-c]pyridin-2-one]", "values": [{"measurement": "CC50 at 3 days", "setting": "[1]", "result": "> 98.4", "unit": "µM"}, {"measurement": "EC50", "setting": "rgRSV224 virus", "result": "> 98.4", "unit": "µM"}]}
